{"source": "paper PMC8438627", "about": "(The Journal of Cell Biology, 2021)", "tested_on": "NAP1L4", "assay": "IP-IB of HA-tagged", "assay_type": "binding", "details": "HA-tagged (PR)12 mixed with HEK293 cell lysates containing increasing concentrations of 1,6-hexanediol"}
{"molecule": "OCCCCCCO", "note": "[1,6-hexanediol]", "values": [{"measurement": "immunoprecipitated NAP1L4 signal with increasing 1,6-hexanediol", "result": "faded accordingly"}]}
